Values of other authors as cited in article PMC2885594 (Current Chemical Genomics, 2010).

Tested on: TPH1
Conditions: ref [30]

## N[C@@H](Cc1c[nH]c2ccc(O)cc12)C(=O)O [5-HTP]
  mechanism of inhibition versus phenylalanine: competitive
  mechanism of inhibition versus pterin: uncompetitive
